# Measurements as given in ChEMBL document CHEMBL1127006, “QSAR study of benzoquinolinones as inhibitors of human type 1 5--reductase” (Bioorg Med Chem Lett, 1993).
# Target: T1, 3-oxo-5-alpha-steroid 4-dehydrogenase 1 (Homo sapiens, UniProt P18405)
# T1 sequence (P18405 whole entry): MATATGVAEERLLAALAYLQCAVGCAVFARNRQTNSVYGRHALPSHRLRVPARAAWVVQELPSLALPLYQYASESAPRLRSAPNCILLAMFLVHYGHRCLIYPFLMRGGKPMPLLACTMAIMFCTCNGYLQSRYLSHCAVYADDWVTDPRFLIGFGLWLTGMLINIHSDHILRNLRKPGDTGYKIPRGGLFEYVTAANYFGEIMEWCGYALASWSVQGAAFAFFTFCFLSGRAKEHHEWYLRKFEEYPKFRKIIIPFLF
# Assay: In vitro inhibitory concentration required to inhibit Steroid 5-alpha-reductase type 1 in cultured Hs 68 human foreskin fibroblast cells
# Assay type: cell-based
# Conditions: read-out: Log 1/IC50 (converted)
row,IC50,Compound
1,1000 nM,CN1C(=O)CCC2(C)c3ccccc3CCC12 (stereo unspecified)
2,34.7 nM,CN1C(=O)CCC2c3ccc(F)cc3CCC21 (stereo unspecified)
3,32.4 nM,Cc1ccc2c(c1)CCC1=C2CCC(=O)N1C
4,79.4 nM,CN1C(=O)CCC2c3ccc(I)cc3CCC21 (stereo unspecified)
5,1000 nM,CN1C(=O)CCC2=C1CCc1ccccc12
6,34.7 nM,CN1C(=O)CCC2c3ccc(Br)cc3CCC21 (stereo unspecified)
7,32.4 nM,CN1C(=O)CCC2(C)c3ccc(Cl)cc3CCC12 (stereo unspecified)

# More lines, now with the values behind:
row,Compound,IC50
1,CN1C(=O)CCC2c3ccc(C(F)(F)F)cc3CCC21 (stereo unspecified),89.1 nM
2,CN1C(=O)CCC2c3ccccc3CCC21 (stereo unspecified),562 nM
3,CN1C(=O)CCC2=C1CCc1cc(Cl)ccc12,174 nM
4,CN1C(=O)CCC2=C1CCc1cc(Br)ccc12,60.3 nM
5,CN1C(=O)CCC2=C1CCc1cc(F)ccc12,151 nM
6,COc1ccc2c(c1)CCC1C2CCC(=O)N1C (stereo unspecified),115 nM
7,CN1C(=O)CCC2(C)c3ccc(F)cc3CCC12 (stereo unspecified),115 nM
8,Cc1ccc2c(c1)CCC1C2CCC(=O)N1C (stereo unspecified),32.4 nM
9,CN1C(=O)CCC2c3ccc(Cl)cc3CCC21 (stereo unspecified),7.94 nM
